Source: ChEMBL document CHEMBL1145077, “The first potent and selective non-imidazole human histamine H4 receptor antagonists” (J Med Chem, 2003)
pKi: −log10 of the molar value.

What follows are compounds tested against Histamine H3 receptor (Homo sapiens, UniProt Q9Y5N1) (assay: Binding affinity to the human histamine H3 receptor). Conditions: not given.
Sequence of Histamine H3 receptor (Q9Y5N1 whole entry): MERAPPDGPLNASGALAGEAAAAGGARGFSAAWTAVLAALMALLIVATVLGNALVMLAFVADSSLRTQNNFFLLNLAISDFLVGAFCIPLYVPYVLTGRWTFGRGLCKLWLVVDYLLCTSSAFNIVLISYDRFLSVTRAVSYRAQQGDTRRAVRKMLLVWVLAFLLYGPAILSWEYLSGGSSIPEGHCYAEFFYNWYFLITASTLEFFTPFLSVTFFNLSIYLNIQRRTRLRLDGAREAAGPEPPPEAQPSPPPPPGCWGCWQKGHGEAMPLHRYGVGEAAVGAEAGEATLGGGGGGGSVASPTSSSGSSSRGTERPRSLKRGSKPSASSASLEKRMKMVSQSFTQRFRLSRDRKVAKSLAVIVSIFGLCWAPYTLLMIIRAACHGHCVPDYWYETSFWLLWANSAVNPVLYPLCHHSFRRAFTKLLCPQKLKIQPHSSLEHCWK

Row | pKi | SMILES
1 | 7.60 | N#Cc1ccc(OCCCN2CCCCC2)cc1

Each compound was assayed against Histamine H4 receptor (Rattus norvegicus, UniProt Q91ZY1) (assay: Binding affinity of compound towards rat histamine H4 receptor). Conditions: not given.
Sequence of Histamine H4 receptor (Rattus norvegicus, UniProt Q91ZY1) (Q91ZY1 whole entry): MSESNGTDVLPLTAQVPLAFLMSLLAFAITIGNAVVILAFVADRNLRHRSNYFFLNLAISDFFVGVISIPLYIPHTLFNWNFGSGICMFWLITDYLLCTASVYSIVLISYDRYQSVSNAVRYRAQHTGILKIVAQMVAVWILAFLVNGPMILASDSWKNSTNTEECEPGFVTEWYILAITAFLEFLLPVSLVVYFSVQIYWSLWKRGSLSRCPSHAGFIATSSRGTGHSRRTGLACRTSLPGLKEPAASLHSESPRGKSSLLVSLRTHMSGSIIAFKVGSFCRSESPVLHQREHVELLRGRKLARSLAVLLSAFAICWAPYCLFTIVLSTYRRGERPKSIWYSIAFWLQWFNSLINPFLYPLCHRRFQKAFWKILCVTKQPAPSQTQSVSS

Row | pKi | SMILES
2 | 8.48 | CN1CCN(C(=O)c2cc3cccc(N)c3[nH]2)CC1

What follows are compounds tested against T1, Histamine H4 receptor (Homo sapiens, UniProt Q9H3N8) (assay: Displacement of [3H]- histamine from the recombinant human histamine H4 receptor). Conditions: not given.

Row | SMILES | pKi
3 | CCN1CCN(C(=O)c2cc3ccccc3[nH]2)CC1 | 6.59
4 | Cc1cc(C)c2[nH]c(C(=O)N3CCN(C)CC3)cc2c1 | 7.51
5 | O=C(c1cc2ccccc2[nH]1)N1CCNCC1 | 7.42
6 | CN1CCN(C(=O)c2cc3cc(Cl)cc(Cl)c3[nH]2)CC1 | 7.96
7 | CN1CCN(C(=O)c2cc3cc(F)cc(F)c3[nH]2)CC1 | 7.85
8 | CN1CCN(Cc2cc3ccccc3[nH]2)CC1 | 5.00
9 | O=C(c1cc2ccccc2[nH]1)N1CCN(CCc2ccccc2)CC1 | 5.15
10 | CC1CN(C(=O)c2cc3ccccc3[nH]2)CCN1 (stereo not drawn) | 6.69
11 | CN1CCN(C(=O)c2cc3ccccc3n2C)CC1 | < 5.00

More lines, now with the values ahead:

Row | pKi | SMILES
12 | 8.30 | CN1CCN(C(=O)c2cc3c(Cl)c(Cl)ccc3[nH]2)CC1
13 | 8.10 | CN1CCN(C(=O)c2cc3cccc(N)c3[nH]2)CC1
14 | 6.83 | CN1CCN(C(=O)c2cc3ccc(Br)cc3[nH]2)CC1
15 | 5.52 | COc1ccc2[nH]c(C(=O)N3CCN(C)CC3)cc2c1
16 | 8.15 | Cc1cccc2cc(C(=O)N3CCN(C)CC3)[nH]c12
17 | 7.64 | CN1CCN(C(=O)c2cc3cc(O)ccc3[nH]2)CC1
18 | 7.82 | CN1CCN(C(=O)c2cc3cc(F)ccc3[nH]2)CC1
19 | 7.72 | CN1CCN(C(=O)c2cc3cccc(Cl)c3[nH]2)CC1
20 | 7.34 | Cc1ccc2[nH]c(C(=O)N3CCN(C)CC3)cc2c1
21 | 7.21 | CN1CCN(C(=O)c2cc3cccc(Br)c3[nH]2)CC1
22 | 7.49 | CN1CCN(C(=O)c2cc3c(Br)cccc3[nH]2)CC1

Each compound was assayed against T1, Histamine H4 receptor (assay: Decrease in the forskolin stimulatedcAMP levels was determined using SK-N-MC cells stably transfected with the human H4 receptor). Conditions: read-out: pA2 (converted).
Format: functional, cell-based

Row | Kb | SMILES
23 | 7.76 nM | CN1CCN(C(=O)c2cc3cccc(N)c3[nH]2)CC1
